Legend:
Assay type in all cases: in vivo, Balb/c mice
thymocytes = experiment: Flow cytometry assay for detection of thymocyte apoptosis (Annexin V-FITC and PI); conditions: DNFB-induced DTH mice, model group about 72%
Description: The animal model was conducted as mentioned in section 1.1 of Example 1 above. Thymocytes were washed by cold PBS and binding buffer, resuspended in binding buffer including Annexin V-FITC, and then incubated at room temperature for 10 minutes. After adding the binding buffer containing PI, the cells were incubated on ice for another 15 minutes. The data was analyzed by flow cytometry within one hour.

CD4+CD8+ thymocytes = experiment: Flow cytometry assay for detection of CD4 and CD8 expression in thymocytes; conditions: DNFB-induced DTH mice, topical application; control and model groups about 76%
Description: (§1) Male Balb/c mice, weighing 19-21 g were sensitized through topical application of 20 μl of 0.5% (v/v) DNFB in acetone onto the shaved abdomen on days 1 and 2. Challenge was then preformed on day 6 by applying DNFB (20 μl, 0.5%, v/v) on the left inner and outer ear surfaces of mice. DMY (at dosage of 1 mg/ear) and/or DEX (1.5625 μg/ml) dissolved in acetone was topically applied (20 μl) to the ears at 2nd, 24th, 48th, 72nd, hour after the challenge. The edema was calculated as the difference between the thickness of left and right ear at the 24th, 48th and 72nd h after challenge. […] The control 100 group was treated only with DNFB or solvent solution.
The animal model was conducted as mentioned in section 1.1 of Example 1 above, in which after the mice were sacrificed by cervical dislocation, the thymocytes were isolated and washed by PBS. The cells were stained by 20 μL CD4 with CD8 for 30 min avoiding from light, followed by 4% PFA to fix the cells, and flow cytometery was then conducted.

thymic architecture = experiment: Histological examination of thymus; conditions: compared with DEX-treated animals
Description: as §1

[1] = test system: ear edema of DTH mice induced by DNFB; experiment: Delay-type hypersensitivity test (DTHT) in mice: ear edema; conditions: topical, DMY 1 mg/ear and/or DEX 1.5625 μg/ml, 24th, 48th, 72nd h after challenge, vs Model Group
Description: as §1
FIGS. 1a and 1b show the effects of DEX, DMY and the combinational application of DMY and DEX (illustrated as the DMY+DEX group) on treatment of ear edema of DTH mice induced by DNFB. Edema as expressed as the increase in ear thickness (ΔT in micrometer±S.E.M.) in the DNFB experiments. Percentages of inhibition (% I) for each measurement were calculated from values for the DEX, DMY and DMY+ DEX groups with respect to those for the Model Group. Statistically significant differences with respect to the Model Group are expressed as *P<0.05 and **P<0.01 (Dunnett's t test).
The animal model was conducted as mentioned in section 1.1 of Example 1 above. […]

[2] = test system: CD4+ and CD8+ cells in the ears; experiment: Immunohistochemical staining of CD4 and CD8 in ear sections; conditions: immunohistochemical analysis; in comparison with the Model Group
Description: as §1
(§2) The animal model was conducted as mentioned in section 1.1 of Example 1 above. […] Antigens were retrieved by steaming samples in DAKO target retrieval buffer (DAKO) for 20 minutes. After the nonspecific binding sites were blocked, the sections were incubated overnight at 4° C. with CD4 or CD8 antibodies (Phoenix Pharmaceuticals).
(§3) Sections were stained with 3,3′-diaminobenzidine substrate and counterstained with Meyer hematoxylin and eosin.

[3] = test system: signal-joint TRECs in thymocytes; experiment: Quantification of signal-joint TRECs; conditions: compared with the DEX-treated animals
Description: as §1
DNA was isolated from purified thymic T cells using DNA purification kit. PCR was performed using mδRec- and ψJα-specific primers and an mδRec-ψJα fluorescent probe as described previously. The standard curves for murine TRECs were generated using a mδRec-ψJα TREC PCR product cloned into a pc DNA3.1 plasmid from Prof. Gregory D. Sempowski (Duke Human Vaccine Institute, Duke University Medical Center, Durham, N.C., USA.). The assay was performed on slides according to previous study.

[4] = test system: mononuclear cell infiltrate in the ear; experiment: Histological examination of ear inflammation; conditions: DNFB-treated mice, ear histology
Description: as §1, §2, §3

Compound: C[C@@H]1C[C@H]2[C@@H]3CCC4=CC(=O)C=C[C@]4(C)[C@@]3(F)[C@@H](O)C[C@]2(C)[C@@]1(O)C(=O)CO [DEX, dexamethasone]
- ratio of thymocyte apoptosis (thymocytes): 77.9%
- CD4+CD8+ T cell population in thymus (CD4+CD8+ thymocytes): 54.7%

Compound: O=C1c2c(O)cc(O)cc2O[C@H](c2cc(O)c(O)c(O)c2)[C@H]1O [DMY, dihydromyricetin]
- thymic architecture (corticomedullary junctions) (thymic architecture): significantly improve the thymic architecture
- effect on ear edema (increase in ear thickness, percentages of inhibition) [1]: could inhibit ear edema
- accounts of CD4+ and CD8+ cells in the treated ears [2]: shown to reduce the accounts of CD4+ and CD8+ cells
- levels of signal-joint TRECs in thymocytes [3]: could increase the levels of signal-joint TRECs
- number of inflammatory cells in the ear [4]: could be significantly reduced
